Test results from the supplement of paper PMC4862054.

Assays:
Settings in all cases: incubation time: 72 h
BT-474 [1] = assay: normalised response (% of control), CellTox Green; higher = less cell death (100 = DMSO, 0 = benzethonium chloride kill control)
How it was run: (§1)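 In 384-well plates holding compound at 5 concentrations in 10-fold steps over a 10,000-fold range specific to each compound, breast cancer cell lines were seeded as 20 µl suspension and incubated 72 h. CellTox Green fluorescence was measured at 485/520 nm, after which CellTiter-Glo luminescence was measured following 10 min at room temperature. Plate signals were normalised to 0.1 % DMSO (100) and a positive kill control (0), and each value is the normalised signal at a single concentration.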

BT-549 [2] = assay: as above
How it was run: as §1

CAL-120 [3] = assay: as above
How it was run: as §1

CAL-148 [4] = assay: as above
How it was run: as §1

CAL-51 [5] = assay: as above
How it was run: as §1

CAL-85-1 [6] = assay: as above
How it was run: as §1

DU-4475 [7] = assay: as above
How it was run: as §1

HCC1143 [8] = assay: as above
How it was run: as §1

HCC1599 [9] = assay: as above
How it was run: as §1

HCC1937 [10] = assay: as above
How it was run: as §1

HDQ-P1 [11] = assay: as above
How it was run: as §1

Hs578T [12] = assay: as above
How it was run: as §1

MCF-10A [13] = assay: as above
How it was run: as §1

MDA-MB-231 [14] = assay: as above
How it was run: as §1

MDA-MB-436 [15] = assay: as above
How it was run: as §1

MDA-MB-453 [16] = assay: as above
How it was run: as §1

MDA-MB-468 [17] = assay: as above
How it was run: as §1

MFM-223 [18] = assay: as above
How it was run: as §1

BT-474 [19] = assay: normalised response (% of control), CellTiter-Glo; higher = more viable cells (100 = DMSO, 0 = benzethonium chloride kill control)
How it was run: as §1

BT-549 [20] = assay: as above
How it was run: as §1

CAL-120 [21] = assay: as above
How it was run: as §1

CAL-148 [22] = assay: as above
How it was run: as §1

CAL-51 [23] = assay: as above
How it was run: as §1

CAL-85-1 [24] = assay: as above
How it was run: as §1

DU-4475 [25] = assay: as above
How it was run: as §1

HCC1143 [26] = assay: as above
How it was run: as §1

HCC1599 [27] = assay: as above
How it was run: as §1

HCC1937 [28] = assay: as above
How it was run: as §1

HDQ-P1 [29] = assay: as above
How it was run: as §1

Hs578T [30] = assay: as above
How it was run: as §1

MCF-10A [31] = assay: as above
How it was run: as §1

MDA-MB-231 [32] = assay: as above
How it was run: as §1

MDA-MB-436 [33] = assay: as above
How it was run: as §1

MDA-MB-453 [34] = assay: as above
How it was run: as §1

MDA-MB-468 [35] = assay: as above
How it was run: as §1

MFM-223 [36] = assay: as above
How it was run: as §1

SK-BR-3 = assay: as above
How it was run: as §1

SMILES	normalised response (BT-474 [1]) [%]	normalised response (BT-549 [2]) [%]	normalised response (CAL-120 [3]) [%]	normalised response (CAL-148 [4]) [%]	normalised response (CAL-51 [5]) [%]	normalised response (CAL-85-1 [6]) [%]	normalised response (DU-4475 [7]) [%]	normalised response (HCC1143 [8]) [%]	normalised response (HCC1599 [9]) [%]	normalised response (HCC1937 [10]) [%]	normalised response (HDQ-P1 [11]) [%]	normalised response (Hs578T [12]) [%]	normalised response (MCF-10A [13]) [%]	normalised response (MDA-MB-231 [14]) [%]	normalised response (MDA-MB-436 [15]) [%]	normalised response (MDA-MB-453 [16]) [%]	normalised response (MDA-MB-468 [17]) [%]	normalised response (MFM-223 [18]) [%]	normalised response (BT-474 [19]) [%]	normalised response (BT-549 [20]) [%]	normalised response (CAL-120 [21]) [%]	normalised response (CAL-148 [22]) [%]	normalised response (CAL-51 [23]) [%]	normalised response (CAL-85-1 [24]) [%]	normalised response (DU-4475 [25]) [%]	normalised response (HCC1143 [26]) [%]	normalised response (HCC1599 [27]) [%]	normalised response (HCC1937 [28]) [%]	normalised response (HDQ-P1 [29]) [%]	normalised response (Hs578T [30]) [%]	normalised response (MCF-10A [31]) [%]	normalised response (MDA-MB-231 [32]) [%]	normalised response (MDA-MB-436 [33]) [%]	normalised response (MDA-MB-453 [34]) [%]	normalised response (MDA-MB-468 [35]) [%]	normalised response (MFM-223 [36]) [%]	normalised response (SK-BR-3) [%]
CC(C)n1nc(-c2ccc3oc(N)nc3c2)c2c(N)ncnc21 [INK128] (10 nM)	76.1	83.9	100	96.6	99.6	99.9	96.8	60.6	95	91.2	78.1	108	108	99.5	94.7	99.3	104	99.9	78.9	74.7	82.4	81.7	76.8	81.4	86.8	85.8	100	82.9	75	85	89.1	81.8	79.1	73.8	81.2	70.6	55.6
CCCc1cc(C)[nH]c(=O)c1CNC(=O)c1cc(-c2ccnc(N3CCN(C)CC3)c2)cc2c1cnn2C(C)C [GSK343] (100 nM)	100	98.5	95.3	101	62.8	106	96	91.9	96.3	87.8	105	51	85.8	100	88.6	102	161	99.6	94.8	101	94.6	90.1	67.6	91.9	92.5	93.2	82.2	94.9	96.5	95.5	92.7	97.2	103	90	84.6	95.5	88.1
CC(C)C[C@H](NC(=O)[C@H](CCc1ccccc1)NC(=O)CN1CCOCC1)C(=O)N[C@@H](Cc1ccccc1)C(=O)N[C@@H](CC(C)C)C(=O)[C@@]1(C)CO1 [Carfilzomib] (10 nM)	87.4	81.9	91.2	78.6	35.9	43.5	100	90.5	111	48.8	96.5	69.9	100	51.9	48.3	84.6	-51.7	66.1	70.3	6.23	91.6	104	60.5	37.6	102	44.4	104	77	83.5	63.5	119	78.8	23.4	40.7	0.56	8.07	19.1
C[C@@H](C(=O)O)c1ccc(-c2ccccc2)c(F)c1 [Tarenflurbil] (100 nM)	93.2	98.8	103	102	92.8	101	98.1	98.1	99.3	100	93	89.7	61.1	96.1	72	100	101	103	101	97.3	98.3	90.3	91.1	95	101	94.8	106	91.2	95.2	102	91.7	97.3	97.9	101	96.4	96.2	91.6
